Laboratory results taken from patent US20240360082A1, “SUBSTITUTED PYRIDONE COMPOUNDS USEFUL TO TREAT ORTH[…]” (priority 2021, published 2024).

target: influenza A virus minigenome (PB2, PB1, PA, NP proteins) (UniProt P04665); format: cell-based; details: read-out: RNP_ Hubei B IC50
Sequence (P04665 whole entry): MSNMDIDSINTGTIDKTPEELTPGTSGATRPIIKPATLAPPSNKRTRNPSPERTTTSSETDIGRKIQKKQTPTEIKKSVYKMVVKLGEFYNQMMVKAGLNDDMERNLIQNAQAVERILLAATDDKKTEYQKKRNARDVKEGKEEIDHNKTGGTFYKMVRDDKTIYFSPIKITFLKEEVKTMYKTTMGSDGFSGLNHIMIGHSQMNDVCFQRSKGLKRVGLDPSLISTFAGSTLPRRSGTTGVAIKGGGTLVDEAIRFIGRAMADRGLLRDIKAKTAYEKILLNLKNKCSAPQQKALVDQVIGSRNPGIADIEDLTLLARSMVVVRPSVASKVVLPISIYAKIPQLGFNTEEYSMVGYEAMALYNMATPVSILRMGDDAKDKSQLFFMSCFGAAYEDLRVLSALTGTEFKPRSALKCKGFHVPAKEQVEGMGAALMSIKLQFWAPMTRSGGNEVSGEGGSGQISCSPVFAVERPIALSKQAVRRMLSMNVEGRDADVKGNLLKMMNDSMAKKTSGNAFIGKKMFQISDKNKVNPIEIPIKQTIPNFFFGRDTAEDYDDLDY

SMILES	IC50
NC(=O)c1cc(-c2ccc(OCC3OCC4CCC3O4)cc2)c(C(F)(F)F)[nH]c1=O (single isomer, unassigned) [Example 318, 5-(4-((3,8-dioxabicyclo[3.2.1]octan-2-yl)methoxy)phenyl)-2-oxo-6-(trifluoromethyl)-1,2-dihydropyridine-3-carboxamide]	5 to 10 µM
NC(=O)c1cc(-c2ccc(OCC3COCC(CO)O3)cc2)c(C(F)(F)F)[nH]c1=O (centres unmarked) [Example 384, 5-(4-((6-(hydroxymethyl)-1,4-dioxan-2-yl)methoxy)phenyl)-2-oxo-6-(trifluoromethyl)-1,2-dihydropyridine-3-carboxamide]	5 to 10 µM
COCC1OC(COc2ccc(-c3cc(C(N)=O)c(=O)[nH]c3C(F)(F)F)cc2)COC1C (single isomer, unassigned) [Example 392, 5-(4-((6-(methoxymethyl)-5-methyl-1,4-dioxan-2-yl)methoxy)phenyl)-2-oxo-6-(trifluoromethyl)-1,2-dihydropyridine-3-carboxamide]	5 to 10 µM
Cc1oncc1COc1ccc(-c2cc(C(N)=O)c(=O)[nH]c2C(F)(F)F)cc1 [Example 269, 5-(4-((5-methylisoxazol-4-yl)methoxy)phenyl)-2-oxo-6-(trifluoromethyl)-1,2-dihydropyridine-3-carboxamide]	25 to 50 µM
NC(=O)c1cc(-c2ccc(OC[C@H]3COC[C@@H](C4CC4)O3)cc2)c(C(F)(F)F)[nH]c1=O [Example 325, 5-(4-(((2R,6R)-6-cyclopropyl-1,4-dioxan-2-yl)methoxy)phenyl)-2-oxo-6-(trifluoromethyl)-1,2-dihydropyridine-3-carboxamide]	10 to 25 µM
CC(C)(C)OC(=O)N1C[C@H](F)C[C@H]1COc1ccc(-c2cc(C(N)=O)c(=O)[nH]c2C(F)(F)F)cc1 [Example 305, Tert-butyl (2S,4R)-2-((4-(5-carbamoyl-6-oxo-2-(trifluoromethyl)-1,6-dihydropyridin-3-yl)phenoxy)methyl)-4-fluoropyrrolidine-1-carboxylate]	25 to 50 µM
NC(=O)c1cc(-c2ccc(OCC3COCC(COC4CC(F)(F)C4)O3)cc2)c(C(F)(F)F)[nH]c1=O (single isomer, unassigned) [Example 367, 5-(4-((6-((3,3-difluorocyclobutoxy)methyl)-1,4-dioxan-2-yl)methoxy)phenyl)-2-oxo-6-(trifluoromethyl)-1,2-dihydropyridine-3-carboxamide]	5 to 10 µM
CCOCC1COCC(COc2ccc(-c3cc(C(N)=O)c(=O)[nH]c3C(F)(F)F)cc2)O1 (single isomer, unassigned) [Example 361, 5-(4-((6-(ethoxymethyl)-1,4-dioxan-2-yl)methoxy)phenyl)-2-oxo-6-(trifluoromethyl)-1,2-dihydropyridine-3-carboxamide]	5 to 10 µM
Cn1cc(COc2ccc(-c3cc(C(N)=O)c(=O)[nH]c3C(F)(F)F)cc2)cn1 [Example 220, 5-(4-((1-methyl-1H-pyrazol-4-yl)methoxy)phenyl)-2-oxo-6-(trifluoromethyl)-1,2-dihydropyridine-3-carboxamide]	25 to 50 µM
NC(=O)c1cc(-c2ccc(OCC3COC(C(F)F)CO3)cc2)c(C(F)(F)F)[nH]c1=O (single isomer, unassigned) [Example 345, 5-(4-((5-(difluoromethyl)-1,4-dioxan-2-yl)methoxy)phenyl)-2-oxo-6-(trifluoromethyl)-1,2-dihydropyridine-3-carboxamide]	5 to 10 µM
COC[C@H]1COC[C@@H](COc2ccc(-c3cc(C(N)=O)c(=O)[nH]c3C(F)(F)F)cc2)O1 [Example 398, 5-(4-(((2S,6S)-6-(methoxymethyl)-1,4-dioxan-2-yl)methoxy)phenyl)-2-oxo-6-(trifluoromethyl)-1,2-dihydropyridine-3-carboxamide]	5 to 10 µM
C[C@H]1COC[C@@H](COc2ccc(-c3cc(C(N)=O)c(=O)[nH]c3C(F)(F)F)cc2)O1 [Example 330, 5-(4-(((2S,6S)-6-methyl-1,4-dioxan-2-yl)methoxy)phenyl)-2-oxo-6-(trifluoromethyl)-1,2-dihydropyridine-3-carboxamide]	25 to 50 µM
C[C@@]12O[C@@H](COc3ccc(-c4cc(C(N)=O)c(=O)[nH]c4C(F)(F)F)cc3)CO[C@@H]1C2(F)F [Example 396, 5-(4-(((1R,3R,6S)-7,7-difluoro-1-methyl-2,5-dioxabicyclo[4.1.0]heptan-3-yl)methoxy)phenyl)-2-oxo-6-(trifluoromethyl)-1,2-dihydropyridine-3-carboxamide]	5 to 10 µM
NC(=O)c1cc(-c2ccc(OCC3C[C@@H]4CC[C@H]3O4)cc2)c(C(F)(F)F)[nH]c1=O (single isomer, unassigned) [Example 315, 5-(4-((7-oxabicyclo[2.2.1]heptan-2-yl)methoxy)phenyl)-2-oxo-6-(trifluoromethyl)-1,2-dihydropyridine-3-carboxamide]	10 to 25 µM

same assay, conditions: read-out: RNP_Hubei B

SMILES	IC50
NC(=O)c1cc(-c2ccc(OC(c3cccnc3)C3CC3)cc2)c(C(F)(F)F)[nH]c1=O (centres unmarked) [Example 184, 5-(4-(cyclopropyl(pyridin-3-yl)methoxy)phenyl)-2-oxo-6-(trifluoromethyl)-1,2-dihydropyridine-3-carboxamide]	10 to 25 µM
NC(=O)c1cc(-c2ccc(CN3CCOCC3)cc2F)c(C(F)(F)F)[nH]c1=O [Example 42, 5-(2-fluoro-4-(morpholinomethyl)phenyl)-2-oxo-6-(trifluoromethyl)-1,2-dihydropyridine-3-carboxamide]	10 to 25 µM
NC(=O)c1cc(-c2ccc(OCC3CCCCC3)cc2)c(C(F)(F)F)[nH]c1=O [Example 58, 5-(4-(cyclohexylmethoxy)phenyl)-2-oxo-6-(trifluoromethyl)-1,2-dihydropyridine-3-carboxamide]	5 to 10 µM
NC(=O)c1cc(-c2ccc(OCc3nccs3)cc2)c(C(F)(F)F)[nH]c1=O [Example 143, 2-oxo-5-(4-(thiazol-2-ylmethoxy)phenyl)-6-(trifluoromethyl)-1,2-dihydropyridine-3-carboxamide]	10 to 25 µM
NC(=O)c1cc(-c2ccc(CN3CCS(=O)(=O)CC3)cc2)c(C(F)(F)F)[nH]c1=O [Example 47, 5-(4-((1,1-dioxidothiomorpholino)methyl)phenyl)-2-oxo-6-(trifluoromethyl)-1,2-dihydropyridine-3-carboxamide]	25 to 50 µM
NC(=O)c1cc(-c2ccc(CO)cc2)c(C(F)(F)F)[nH]c1=O [Example 2, 5-(4-(hydroxymethyl)phenyl)-2-oxo-6-(trifluoromethyl)-1,2-dihydropyridine-3-carboxamide]	25 to 50 µM
NC(=O)c1cc(-c2ccc(OCc3ccsc3)cc2)c(C(F)(F)F)[nH]c1=O [Example 110, 2-oxo-5-(4-(thiophen-3-ylmethoxy)phenyl)-6-(trifluoromethyl)-1,2-dihydropyridine-3-carboxamide]	5 to 10 µM
NC(=O)c1cc(-c2ccc(CC3(F)CCOCC3)cc2)c(C(F)(F)F)[nH]c1=O [Example 51, 5-(4-((4-fluorotetrahydro-2H-pyran-4-yl)methyl)phenyl)-2-oxo-6-(trifluoromethyl)-1,2-dihydropyridine-3-carboxamide]	5 to 10 µM
COc1ccc(-c2cc(C(N)=O)c(=O)[nH]c2C(F)(F)F)cc1Cl [Example 18, 5-(3-chloro-4-methoxyphenyl)-2-oxo-6-(trifluoromethyl)-1,2-dihydropyridine-3-carboxamide]	10 to 25 µM
